Laboratory results taken from PMC8113459, “Selective inhibition of cullin 3 neddylation through covalent targeting DCN1 protects mice from acetaminophen-induced liver toxicity” (Nature Communications, 2021).
Several values for one entry are separate records, joined by “and”; a condition that tells them apart may be missing. Equal entries are not always repeated. Where two headings read alike, the source gives them in different places.

Tests used:
[1] = biological target: DCN3 protein (Homo sapiens, UniProt Q8IWE4); assay: Intact-protein mass spectrometric analysis, Method B (DCN3); assay type: binding; details: 3 h incubation
DCN3 protein, sequence (Q8IWE4 86-304 limits assumed): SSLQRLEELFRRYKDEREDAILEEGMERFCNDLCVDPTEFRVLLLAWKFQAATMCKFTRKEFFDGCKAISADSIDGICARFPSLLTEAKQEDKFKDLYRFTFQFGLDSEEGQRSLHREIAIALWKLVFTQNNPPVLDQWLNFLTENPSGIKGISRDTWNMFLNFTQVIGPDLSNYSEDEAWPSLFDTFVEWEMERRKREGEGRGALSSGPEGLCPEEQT
Experimental: Method B: Recombinant DCN1 or DCN3 protein (100 nM in 25 mM Tris 7.5, 200 mM NaCl, 1 mM DTT buffer) was incubated with 1.2-fold excess of the DCN1 inhibitors at 37 °C for 10 min, 1 h, or 3 h. Following incubation, the protein was analyzed by LC–MS (Agilent Q-TOF 6545) under the following conditions: fragmentor voltage, 300 V; skimmer voltage, 75 V; nozzle voltage, 100 V; sheath gas temperature, 350 °C; and drying gas temperature, 325 °C. MassHunter Qualitative Analysis software (Agilent) was used to analyze the data. Intact protein masses were obtained using the maximum entropy deconvolution algorithm. The mass spectrometry data in Supplementary Figs. 14–17 were generated by Method B.

[2] = Pharmacokinetics: concentrations in mouse plasma and liver; assay type: in vivo; details: for concentration at 1 h / concentration at 3 h / concentration at 6 h / concentration at 24 h: male, C57BL/6, mouse, ip
Experimental: Supplementary Table 2A. Concentrations of DI-1548 in mouse Plasma and liver after the C57BL/6 male mice were treated with a single dose of DI-1548 at 25 mg/kg via intraperitoneal (IP) injection. BLQ: below the limit of quantification.
Time point (h) Plasma (ng /mL) Liver (ng /g)
Supplementary Table 2B. Concentrations of DI-1859 in mouse Plasma and liver after the C57BL/6 male mice were treated with a single dose of DI-1859 at 25 mg/kg via intraperitoneal (IP) injection. BLQ:
Time point (h) Pl asma (ng /mL) Liver (ng /g) […]

[3] = tested on: neddylation of cullin 3; assay: Western blot, cullin 3 neddylation in cells of different tissue types (U2OS, THLE2, MDA-MB-231, KYSE70, HCT116); assay type: cell-based, human
Experimental: Western blotting was performed as described previously. Treated cells were lysed by RIPA buffer supplemented with protease inhibitor. The expression level of indicated proteins was examined by immunoblotting analysis and GAPDH was used as the loading control. Antibodies were purchased commercially: cullin 1 (sc-17775, 1:500 dilution) and cullin 2 (sc-166506, 1:500 dilution) from Santa Cruz Biotech (Santa Cruz, CA); cullin 4A (PA5-14542, 1:1000 dilution), cullin 4B (PA5-50647, 1:1000 dilution), and DCN3 (DCUN1D3, PA5-44000, 1:1000 dilution) from Thermo Fisher Scientific (Wayne, MI); cullin 3 (2759, 1:1000), NRF2 (12721, 1:1000 dilution), HO-1 (70081, 1:1000 dilution), and Bim (2819, 1:1000 dilution) from Cell Signaling Technology (Boston, MA); DCN1 (GWB-E3D700, 1:1000 dilution) from GenWay Biotech (San Diego, CA); and cullin 5 (A302-173A, 1:500 dilution) from Bethyl Labs (Montgomery, TX). Results are representative of two independent experiments.

[4] = biological target: DCN1 (Homo sapiens, UniProt Q96GG9); assay: Cocrystal structures of lyso-DCN1-inhibitor complexes; design: to DCN1 residues 62–251; His6 (N); TEV cleavage site (N); lysozyme residues 1–164 with C54T, C97A, A146T, D127A, R154A (fusion partner, N-terminal of DCN1); made in house; host or cells: Rosetta 2 cells (E. coli)
DCN1, sequence (Q96GG9 62-251): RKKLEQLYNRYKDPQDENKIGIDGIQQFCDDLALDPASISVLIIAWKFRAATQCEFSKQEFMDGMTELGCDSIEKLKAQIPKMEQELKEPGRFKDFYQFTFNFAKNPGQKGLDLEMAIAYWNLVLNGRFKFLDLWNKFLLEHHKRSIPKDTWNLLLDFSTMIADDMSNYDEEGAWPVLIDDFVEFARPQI
Experimental: Lysozyme–DCN1 gene was synthesized fusing lysozyme residues 1–164, containing mutations (C54T, C97A, A146T, D127A, and R154A), to DCN1 residues 62–251. Ligation independent cloning was utilized to clone the fused gene into an N-terminal His6–TEV expression vector. The clone was transformed into Rosetta 2 cells, grown in terrific broth at 37 °C, and expressed overnight with 0.4 mM isopropyl β-D-1-thiogalactopyranoside at 20 °C. Pelleted cells were freeze-thawed and lysed in 25 mM HEPES, pH 7.5, 150 mM NaCl, 0.1% β-mercaptoethanol and protease inhibitors. Cellular debris was removed via centrifugation. The supernatant was loaded onto a Ni-NTA (Qiagen) column at 4 °C. The column was washed with 25 mM HEPES, pH 7.5, 150 mM NaCl, and 20 mM imidazole, then protein eluted with buffer containing 300 mM imidazole. The eluate was applied to a Superdex 200 (GE Healthcare) equilibrated with 25 mM HEPES, pH 7.5, 200 mM NaCl, and 1 mM DTT. The protein was judged to be greater than 95% pure by SDS-PAGE, concentrated to 3.5 mg/mL and stored at −80 °C. Yield was 450 mg/L of expressed media.
Lyso–DCN1 protein was thawed and concentrated to 9.9 mg/mL in 25 mM HEPES, pH 7.5, 200 mM NaCl, and 1 mM DTT. Each compound was incubated with protein in a 1:1.2 protein to compound molar ratio overnight at 4 °C, then spun and setup in sitting drop vapor diffusion experiments. Crystallization drops contained 2 µL of protein–inhibitor solution and 1 µL of well solution. Crystals grew at 20 °C with well solution containing 28–33% PEG 3350 and 200 mM ammonium formate. Crystals were cryoprotected in 25 mM HEPES, pH 7.5, 200 mM NaCl, 30% PEG 3350, and 1 mM DTT.
Diffraction data were collected at a wavelength of 0.9786 Å on the APS LS-CAT 21-ID-G beamline at Argonne National Laboratory. Data were processed using HKL2000[44] and solved via molecular replacement using molrep[45] with two independent search models (lysozyme and DCN1) from PDB ID 5V83. The structures were iteratively fit and refined using Coot[46] and Buster[47]. […]

[5] = C57BL/6 male mice, 25 mg/kg IP, 6 h
[6] = C57BL/6 male mice, 25 mg/kg IP, 24 h

In the case of C=C(CN1CCOCC1)C(=O)NC[C@@H](NC(=O)[C@H](Cc1nc2ccc(C(C)C)cc2s1)NC(=O)CC)C1CCCCC1 [DI-1548], the “covalent complex formation with DCN3” value [1] is reported as “fail to form any detectable complex”, the “time by which the compounds were cleared from systemic circulation” value ([2]; 25 mg/kg IP) is reported as less than 3 h and the Liver concentration ([2]; C57BL/6 male mice, 25 mg/kg IP, 3 h) is reported as “BLQ”. For the same compound, the Liver concentration [2, 5] was “BLQ”, the Plasma concentration [2, 5] was “BLQ” and the Liver concentration [2, 6] was “BLQ”. For the same compound, the Plasma concentration [2, 6] was “BLQ”, the concentration at 1 h ([2]; liver, 25 mg/kg, C57BL/6 male mice, 25 mg/kg IP, 1 h, read-out: Liver concentration) was 783 ± 336 ng/g and the concentration at 1 h ([2]; liver, 25 mg/kg, mouse liver, IP 25mg/kg, 1h, mean of 3 mice, read-out: Concentration in mouse liver, MEAN) was 783 ng/g. The concentration at 3 h ([2]; liver, 25 mg/kg, mouse liver, IP 25mg/kg, 3h, mean of 3 mice, read-out: Concentration in mouse liver, MEAN) was 3.32 ng/g, the concentration at 3 h ([2]; liver, 25 mg/kg, mouse liver, IP 25mg/kg, 3h, single animals, read-out: Concentration in mouse liver, individual mice 1, 2, 3) was 3.8 ng/g and the concentration at 6 h ([2]; liver, 25 mg/kg, mouse liver, IP 25mg/kg, 6h, mean of 3 mice, read-out: Concentration in mouse liver, MEAN) was 2.37 ng/g. For the same compound, the concentration at 6 h ([2]; liver, 25 mg/kg, mouse liver, IP 25mg/kg, 6h, single animals, read-out: Concentration in mouse liver, individual mice 1, 2, 3) was 2.47 ng/g, the concentration at 24 h ([2]; liver, 25 mg/kg, mouse liver, IP 25mg/kg, 24h, mean, read-out: Concentration in mouse liver, MEAN) was 1.22 ng/g and the concentration at 24 h ([2]; liver, 25 mg/kg, mouse liver, IP 25mg/kg, 24h, single animals, read-out: Concentration in mouse liver, individual mice 1, 2, 3) was 1.22 ng/g. For the same compound, the concentration at 1 h ([2]; plasma, 25 mg/kg, C57BL/6 male mice, 25 mg/kg IP, 1 h, read-out: Plasma concentration) was 1830 ± 319 ng/mL, the concentration at 3 h ([2]; plasma, 25 mg/kg, C57BL/6 male mice, 25 mg/kg IP, 3 h, read-out: Plasma concentration) was 4.5 ± 3.6 ng/mL and the concentration at 1 h ([2]; plasma, 25 mg/kg, mouse plasma, IP 25mg/kg, 1h, mean of 3 mice, read-out: Concentration in mouse plasma, MEAN) was 1830 ng/mL. The concentration at 1 h ([2]; plasma, 25 mg/kg, mouse plasma, IP 25mg/kg, 1h, single animals, read-out: Concentration in mouse plasma, individual mice 1, 2, 3) was 1820 ng/mL, the concentration at 3 h ([2]; plasma, 25 mg/kg, mouse plasma, IP 25mg/kg, 3h, mean of 3 mice, read-out: Concentration in mouse plasma, MEAN) was 4.47 ng/mL and the concentration at 6 h ([2]; plasma, 25 mg/kg, mouse plasma, IP 25mg/kg, 6h, mean (only one mouse above the limit of quantification), read-out: Concentration in mouse plasma, MEAN) was 1.12 ng/mL. The concentration at 6 h ([2]; plasma, 25 mg/kg, mouse plasma, IP 25mg/kg, 6h, single animals, limit of quantification 1 ng/mL, read-out: Concentration in mouse plasma, individual mice 1, 2, 3) was 1.12 ng/mL, the concentration at 24 h ([2]; plasma, 25 mg/kg, mouse plasma, IP 25mg/kg, 24h, single animals, limit of quantification 1 ng/mL, read-out: Concentration in mouse plasma, individual mice 1, 2, 3) was less than 1 ng/mL and the “Concentration in mouse liver, individual mice 1, 2, 3” value (from here on “Concentration in mouse liver”) ([2]; mouse liver, IP 25mg/kg, 1h, single animals, 25 mg/kg) was 766.08 ng/g and 455.81 ng/g and 1128.06 ng/g. The “Concentration in mouse liver” value ([2]; mouse liver, IP 25mg/kg, 3h, single animals, 25 mg/kg) was 2.91 ng/g and 3.26 ng/g, the “Concentration in mouse liver” value ([2]; mouse liver, IP 25mg/kg, 6h, single animals, 25 mg/kg) was 2.85 ng/g and 1.80 ng/g and the “Concentration in mouse plasma, individual mice 1, 2, 3” value (shortened to “Concentration in mouse plasma”) ([2]; mouse plasma, IP 25mg/kg, 1h, single animals, 25 mg/kg) was 2146.60 ng/mL and 1507.85 ng/mL. For the same compound, the “Concentration in mouse plasma” value ([2]; mouse plasma, IP 25mg/kg, 3h, single animals, 25 mg/kg) was 2.23 ng/mL and 8.63 ng/mL and 2.55 ng/mL, the “Concentration in mouse plasma” value ([2]; mouse plasma, IP 25mg/kg, 6h, single animals, limit of quantification 1 ng/mL, 25 mg/kg) was less than 1 ng/mL and the “Concentration in mouse plasma” value ([2]; mouse plasma, IP 25mg/kg, 24h, single animals, limit of quantification 1 ng/mL) was less than 1 ng/mL. The “concentration achieving profound inhibition of the neddylation of cullin 3” value [3] was 1 to 3 nM, the “concentration as low as which the level of neddylated cullin 3 is significantly reduced” value [3] was no more than 0.3 nM and the “covalent bond to Cys115 of DCN1 in the cocrystal structure” value [4] was “confirmed the covalent nature of these complexes”.
